Reference: US20230147744A1, “METHODS TO ENRICH ENTEROENDOCRINE CELLS AND THEIR SUBTYPES IN THE CONTIGUOUS, INTESTINAL MONOLAYER SYSTEMS” (The University of North Carolina at Chapel Hill, priority 2020, published 2023)
“And” between values parts separate entries of the source, which are not always exact repeats. Equal values may be shown once.

How the values were obtained:
[1] = tested on: EC cells in monolayers derived from human transverse colon stem cells; experiment: 5HT secretion assay (ELISA of basal medium) on stem-cell-derived colonic monolayers after apical stimulation; type: cell-based; conditions: for 5HT induction: pungent food ingredient screen, apical stimulation 4 h, EC-enriched monolayers, donor 2
[2] = tested on: EC cells in monolayers derived from human transverse colon stem cells; experiment: as above; type: cell-based
Excerpt: Culture conditions for intestinal epithelial monolayer platform have been optimized in a previous publication, and the medium composition for yielding the maximal expression levels of EEC cell lineage marker gene ChgA was investigated.^11 Nicotinamide and p38 MAP kinase inhibitor (SB202190), two compounds commonly used in intestinal epithelial cell culture, are removed from medium due to their suppression of differentiation towards secretory cells. Inclusion of A 8301, a TGF-β receptor signaling inhibitor, is required for proper differentiation and cell morphology of monolayer cultures. Herein, the same medium composition was adopted and the in vitro monolayers were generated from stem cells derived from human transverse colon using the traditional submerged culture. The EEC (ChgA+) and EC (5HT+) cells presented at a density of 22±5 and 10±3 mm^−2, respectively (FIG. 2A, 2B). Accordingly, the total number of EC cells in a 96-well insert (surface area=11 mm^2) is 110±33. To test if the number of EC cells is enough for functional assays, the monolayers were stimulated with vehicle (dimethyl sulfoxide [DMSO]) or forskolin (10 μM) at the apical side for 4 h, and the released 5HT from the basal side was collected and quantified (FIG. 2C). Forskolin is a potent stimulus of 5HT release though activation of the cAMP-dependent pathway.^18 In three independent experiments, stimulated 5HT secretion by forskolin was 0.97±0.34, 0.88±0.28, and 0.60±0.23 ng/mL, respectively, corresponding to 3.6×, 2.1× and 2.4× induction over the vehicle controls (0.27±0.10, 0.42±0.18 ng/mL, and 0.25±0.07 respectively). Significant inter-experiment variability was observed due to high standard deviation of the 5HT measurements: the results in the first experiment were considered to be statistically non-significant (p>0.05, t-test), statistically significant (p<0.05) in the second one, but statistically non-significant (p>0.05) again in the third experiment. The high standard deviation came from a number of sources: error in 5HT measurement through enzyme-linked immunosorbent assay (ELISA), well-to-well variation, 5HT residue (mainly from the fetal bovine serum in the medium) left in the well, and 5HT that spontaneously leached out from the apoptotic ECs during assay. To improve the reliability of 5HT secretion assay and its signal/background ratio, the number of EEC and EC cells in monolayers need to be enriched.
(§1) The fraction of EC among EEC remained in the range of 45-51% in these differentiation conditions, which is consistent with their fraction in the body that EC make up over 70% of the EEC population in the proximal colon and falls to around 40% in the rectum.^2 To test if the enriched EC cells increases 5HT secretion, the monolayers were stimulated with vehicle (DMSO) or forskolin (10 μM). […] The induction is 6.1× over the vehicle control (0.62±0.07 ng/mL). Therefore, the enriched EC cells improves the 5HT secretion assay by increasing the signal/background ratio.
As the generation and storage of 5HT inside granules of EC cells depends on the cell maturation, the level of 5HT secretion is affected by the differentiation length of the monolayers. To find out the optimal duration for differentiation, the monolayers were subjected to VIP-assisted ALI culture for 3-7 days. As expected, the forskolin stimulated 5HT secretion increased with differentiation length (due to cell maturation), so did the non-stimulated basal secretion (FIG. 4E). The barrier integrity was remained (Papp<4×10^−7 cm/s) for all samples, except for those under 7 days in differentiation in which the cells may start to undergo apoptosis (FIG. 4F). 5 days in differentiation was considered to be optimal since it generated monolayers with high 5HT induction (5.7×) and monolayer barrier integrity. This duration is coincident with life span of differentiated epithelium in human colon. Unless otherwise specified, 5 days were used for differentiation in this invention. […]

[3] = tested on: EEC (ChgA+) and EC (5HT+) cells; experiment: Number of EEC (ChgA+) and EC (5HT+) cells on monolayers by immunofluorescence staining; type: cell-based
Protocol: as §1
It is likely that stem cells make lineage-fate decisions at the proliferation stage toward enterocytes and goblets cells, which are the major cell types in the intestinal epithelium. We can add signaling molecules, such as CHIR99021, to prevent the early lineage-fate decision and force the stem cells to stay at their ground state. CHIR99021 activates Wnt signaling by inhibition of GSK3. When the stem cells were cultured in EM under 3 μM CHIR99021 prior to conventional submerged culture in DM, the presence of EC cells was increased by almost 200% (FIGS. 11A and 11B). […] Besides CHIR99021, other Wnt activators (WAY316606, ABC99, IQ1, arylpyrimidine), and recombinant proteins of Wnt-3A and R-spondin (Wnt signaling enhancer) may be able to increase the formation of EC cells. We have not studied the synergistic effect of Wnt activator (in EM) and VIP-assisted ALI (in DM), but we expect the combination of both strategies will further increase the formation of EEC and EC cells.

[4] = tested on: GLP-1+ L cells; experiment: Density of GLP-1+ L-cells on differentiated colonic monolayers; type: cell-based, human; conditions: for formation of L-cells: addition during differentiation, 4 days
Excerpt: Enteroendocrine (EEC) cells within the intestinal epithelium consist of at least 15 different subtypes. Enterochromaffin (EC) cells are the most abundant subtype, comprising about 40% of EEC cells in the gastrointestinal tract. Besides EC cells, at least one other important EE subtype is L-cells, which are major regulators of the gut-brain interactions and are pivotal in regulating appetite and glucose homeostasis^4. L-cells co-secrete peptide hormones GLP-1 and PYY in response to the ingestion of food^5-8. GLP-1 stimulates the secretion of insulin from pancreatic β-cells^9,10, decreases gastric emptying and increases satiation^11. PYY slows GI motility and reduces food intake^12. Due to their important function as regulators of postprandial response to nutrients, L-cells are of specific interest in the field of obesity and diabetes^3-17. L-cells were also identified in the VIP-ALI cultured monolayers at a density of 12±2 mm^2 and constituted about 14% of the EE population (FIG. 7). However, the density of L-cells is still too low to perform a reliable functional assay of GLP-1/PYY secretion. Thus, further experiments were conducted to develop optimal protocols to enrich L-cells (see Example 7).
Experiments were conducted to systemically optimize four conditions to enrich L-cells: (1) ±ALI, (2) ±VIP, (3) R-spondin/Noggin ratio at 1:4, 1:1 and 4:1 in differentiation medium, (4) ±BIMU8 (a potent 5-HT4 agonist). The colonic stem cells were plated on a porous membrane coated with Matrigel and cultured for 3 days in growth factor-enriched medium until the cell monolayer reach confluence. Then the cells were differentiated for 4 days and the density of GLP-1^+ L cells was used as the readout (FIG. 8A). […] The R-spondin/Noggin ratio in differentiation medium also affected the density of L-cells, and the best result was obtained by using a ratio of 4/1. By using the conditions disclosed herein (ALI, VIP, R-spondin/Noggin=4/1, BIMU8), 137±12 cells/mm^2 GLP-1^+ L-cells were obtained, which is about 46 times higher than 3±2 cells/mm^2 in the previously used conditions (submerged, —VIP, R-spondin/Noggin=1/1, -BIMU8), and 11 times higher than 12±2 mm^2 in VIP-ALI culture (+ALI, +VIP, R-spondin/Noggin=1/1, -BIMU8).

[5] = tested on: colonic monolayers derived from human transverse colon; experiment: Monolayer barrier integrity (Papp, TEER); type: cell-based; conditions: VIP-assisted ALI culture, n=6
Excerpt: Besides the elevated 5HT secretion, an additional advantage of VIP-assisted ALI culture is the improved barrier integrity (FIG. 4D). […] The cell respiration combined with the low diffusion rate of oxygen in the growth medium can lead to a reduced oxygen availability to the cells.^22 ALI culture can increase the oxygen availability, but the cells were stressed due to the complete dry up at the apical surface. […] Conversely, VIP-assisted ALI culture maintained a thin layer of fluid (about 0.4 mm thick) at the apical side, thus increasing the oxygen availability and at the same time as eliminating the stress from dry up. The high integrity of monolayers is needed to effectively segregates the apical and basal reservoirs to prevent the leakage of the stimulants and 5HT.

[6] = ALI, VIP, R-spondin/Noggin=4/1, BIMU8

With `C=C[C@@]1(C)CC(=O)[C@]2(O)[C@@]3(C)[C@@H](O)CCC(C)(C)[C@@H]3[C@H](O)[C@H](OC(C)=O)[C@@]2(C)O1` [forskolin] the 5HT induction [1] was 4.9 ×, the “5HT induction (forskolin/DMSO)” value ([2]; donor 1, 2, and 5) was over 5.0 and the “5HT induction (forskolin/DMSO)” value ([2]; donor 3 and 4) was under 3.6. For the same compound, the “stimulated 5HT secretion” value ([2]; forskolin 10 μM apical 4 h, monolayers from traditional submerged culture, independent experiments) was 0.97 ± 0.34 ng/mL and 0.88 ± 0.28 ng/mL and 0.60 ± 0.23 ng/mL and 0.97 ± 0.44 ng/mL, the “induction of 5HT secretion over the vehicle control” value ([2]; forskolin 10 μM apical 4 h, submerged culture, three independent experiments) was 3.6 × and 2.1 × and 2.4 × and the “induction of 5HT secretion over the vehicle control” value ([2]; forskolin 10 μM, VIP-assisted ALI culture) was 6.1 ×. The “5HT secretion higher than that from submerged culture” value ([2]; forskolin 10 μM, VIP-assisted ALI vs submerged culture) was 390%, the “5HT secretion under forskolin stimulation” value ([2]; forskolin 10 μM, monolayer from VIP-assisted ALI culture) was 3.79 ± 0.57 ng/mL and the 5HT induction ([2]; forskolin, VIP-assisted ALI culture, 5 days in differentiation (duration study 3-7 days)) was 5.7 ×. The “induction of 5HT secretion (forskolin/DMSO)” value ([2]; stem cell passage numbers 7, 9, 11, 13 and 15) was 4.1-5.7 ×.

Work on `O=CC=Cc1ccccc1` [Cinnamaldehyde] yielded a 5HT induction [1] of 1.8 ×.

`Cc1c[nH]c(-c2cnc(NCCNc3ccc(C#N)cn3)nc2-c2ccc(Cl)cc2Cl)n1` [CHIR99021] was tested, and the “increase of presence of EC cells” value ([3]; 3 μM CHIR99021 in EM prior to conventional submerged culture in DM) was about 200%.

vasoactive intestinal peptide [VIP] was tested, and the “L-cells as share of the EE population” value ([4]; VIP-ALI cultured monolayers) was “about 14%”, the “formation of L-cells” value [4] was “increased the formation of L-cells” and the “number of EC compared with submerged culture” value ([3]; VIP added to submerged culture) was 180%. For the same compound, the “number of EEC compared with submerged culture” value ([3]; VIP added to submerged culture) was 177%, the “density of EC” value ([3]; combination of ALI and VIP) was 43±9 mm^−2 and the “density of EEC” value ([3]; combination of ALI and VIP) was 83±11 mm^−2. The “number of EC compared with traditional submerged culture without VIP” value ([3]; combination of ALI and VIP) was 430%, the “number of EEC compared with traditional submerged culture without VIP” value ([3]; combination of ALI and VIP) was 377% and the “transepithelial electrical resistance (TEER)” value [5] was 842±166 ohms cm^2.

For `COc1cc(/C=C/C(=O)CC(=O)/C=C/c2ccc(O)c(OC)c2)ccc1O` [curcumin], the EC50 ([1]; Homo sapiens, dose-dependent stimulation of 5HT secretion, read-out: median effective dose (E50) for 5HT secretion) was 51 µM and the 5HT induction [1] was 7.3 ×.

`CC(C)n1c(=O)n(C(=O)NC2CC3CCC(C2)N3C)c2ccccc21` (stereo not drawn) [BIMU8] was tested, and the “L-cell density, times higher than VIP-ALI culture (+ALI, +VIP, R-spondin/Noggin=1/1, -BIMU8)” value [4, 6] was 11 times, the “L-cell density, times higher than previously used conditions (submerged, -VIP, R-spondin/Noggin=1/1, -BIMU8)” value [4, 6] was “about 46 times” and the “GLP-1+ L-cells density” value ([4]; ALI, VIP, R-spondin/Noggin=4/1, BIMU8, 4 days differentiation) was 137±12 cells/mm^2. For the same compound, the “formation of L-cells” value [4] was “increased the formation of L-cells”.
